Results as given in patent US8273375B2, “Multiparticle pharmaceutical dosage form for a low-soluble active substances and method for producing said pharmaceutical dosage form” (Evonik Roehm GmbH, priority 2004, dated 2012).
Values after ≈ are worked out from the molar mass of the structure shown.

Assay: physchem
Settings: for solubility: water
Procedure: The lipophilic matrix may consist of a single substance, e.g. a lipid, or of a mixture of substances, e.g. a mixture of lipids. In the case of mixtures, the DAB 10 water-solubility properties, the partition coefficients and the HLB values specified below are calculated from the arithmetic mean of the corresponding values of the substances and from their amounts in parts by weight. The substances used here must not be toxic.
The water-solubility of the active substance and the substance or substances forming the lipophilic matrix can be defined as described in DAD 10 German Pharmacopeia 10th ed. with 3rd suppl. 1994, published by Deutscher Apothekerverlag [=German Pharmacologic Publishing House], Stuttgart and by Govi Verlag, Frankfurt am Main, 2nd suppl. 1993, see Section IV “Allgemeine Vorschriften” [=General Methods] on pages 5 and 6, entitled “Löslichkeit und Lösungsmittell” [=Solubility and Solvents]; see also Ph. Eur. 4.07, 2004). The solubility is given here by the number of parts by volume of a solvent needed to dissolve 1 part by weight of the substance, such as a drug. “Low solubility” applies to substances that need 30-100 parts by volume of solvent to dissolve 1 part by weight of the substance or drug in question, while the terms “very low solubility”, “sparingly soluble” and “difficultly soluble” apply to substances that need 100-1000 parts by volume of a solvent to dissolve 1 part by weight of the substance or drug in question.

Structure (SMILES) | Water solubility according to DAB 10: parts of water needed to dissolve 1 part of the active substance | solubility [µg/mL]
CN(CCOc1ccc(CC2SC(=O)NC2=O)cc1)c1ccccn1 (stereo not shown) [Rosiglitazone] | at least 1000 parts of water | 1000 (≈ 2800 µM)
NC(=O)N1c2ccccc2CC(=O)c2ccccc21 [Oxcarbazepine] | at least 10,000 parts of water | 100 (≈ 396 µM)
